Measured values reported in patent publication US9951372B2, “Compounds and methods for assaying redox state of metabolically active cells and methods for measuring NAD(P)/NAD(P)H” (PROMEGA CORPORATION, priority 2011, dated 2018).
Read-outs that look alike come from different tables or passages of the source.

Assays:
Type in all cases: biochemical
[1] = tested on: rat diaphorase; settings: 20 μM compound
[2] = tested on: rat diaphorase
[3] = tested on: rat diaphorase; remark: listed apart in the source
[4] = tested on: Clostridium diaphorase
[5] = tested on: rat diaphorase; remark: listed apart in the source
[6] = tested on: rat diaphorase; settings: 20 μM compound, 40 min
[7] = NADH no, diaphorase yes (5 u/ml rat)
[8] = NADH yes (10 μM), diaphorase no
[9] = NADH yes (10 μM), diaphorase yes (5 u/ml rat), 20 min
[10] = 20 μM compound, 10 μM NADH, 5 u/ml rat diaphorase, 70 min
[11] = 20 μM compound, no NADH, 5 u/ml rat diaphorase, 70 min
[12] = signal with NADH / without NADH, rat diaphorase
[13] = ~1 min after LDR with 500 μM menadione, 20 μM compound, 10 μM NADH
[14] = ~1 min after LDR, 20 μM compound, 10 μM NADH
[15] = ~6 min after LDR with 500 μM menadione, 20 μM compound, 10 μM NADH
[16] = ~6 min after LDR, 20 μM compound, 10 μM NADH
[17] = 20 μM compound, 10 μM NADH, 0.5 u/ml Clostridium diaphorase, 70 min
[18] = 20 μM compound, no NADH, 0.5 u/ml Clostridium diaphorase, 70 min
[19] = signal with NADH / without NADH, Clostridium diaphorase
[20] = reaction time 0 min, 20 μM compound, 10 μM NADH

SMILES: CC1=C(C)C(=O)C(C(C)(C)CC(=O)N(C)CCN(C)C(=O)Oc2ccc3nc(C4=N[C@@H](C(=O)O)CS4)sc3c2)=C(C)C1=O [PBI 4312, quinone trimethyllock-C2-diamine luciferin]
- Avg RLU ([1]; NADH no, diaphorase no): 4262 RLU
- Avg RLU [1, 7]: 3910 RLU
- Avg RLU [1, 8]: 3918 RLU
- Avg RLU [1, 9]: 197017 RLU
- Avg RLU With NADH [2, 10]: 120633 RLU
- Avg RLU Without NADH [2, 11]: 4981 RLU
- S/B [2, 12]: 24
- First Reading With menadione [3, 13]: 3527 RLU
- First Reading Without menadione [3, 14]: 5900 RLU
- Last Reading With menadione [3, 15]: 5062 RLU
- Last Reading Without menadione [3, 16]: 39855 RLU
- Avg RLU With NADH [4, 17]: 29068 RLU
- Avg RLU Without NADH [4, 18]: 5311 RLU
- S/B [4, 19]: 5.5
- Avg RLU [5, 20]: 7809 RLU
- Avg RLU ([5]; reaction time 2 min): 150745 RLU
- Avg RLU ([5]; reaction time 5 min): 206822 RLU
- Avg RLU ([5]; reaction time 10 min): 305968 RLU
- Avg RLU ([5]; reaction time 15 min): 366592 RLU
- Avg RLU ([5]; reaction time 25 min): 499283 RLU
- Avg RLU ([5]; reaction time 30 min): 529063 RLU
- Avg RLU ([5]; reaction time 40 min): 544475 RLU
- Avg RLU ([5]; reaction time 50 min): 599165 RLU
- Avg RLU ([5]; reaction time 60 min): 571954 RLU
- Avg RLU ([6]; NADH 0 μM): 5410 RLU
- Avg RLU ([6]; NADH 0.006 μM): 6447 RLU
- Avg RLU ([6]; NADH 0.012 μM): 7075 RLU
- Avg RLU ([6]; NADH 0.024 μM): 8864 RLU
- Avg RLU ([6]; NADH 0.049 μM): 11190 RLU
- Avg RLU ([6]; NADH 0.098 μM): 20126 RLU
- Avg RLU ([6]; NADH 0.195 μM): 27871 RLU
- Avg RLU ([6]; NADH 0.39 μM): 43659 RLU
- Avg RLU ([6]; NADH 0.78 μM): 33801 RLU
- Avg RLU ([6]; NADH 1.56 μM): 60043 RLU
- Avg RLU ([6]; NADH 3.125 μM): 119311 RLU
- Avg RLU ([6]; NADH 6.25 μM): 235674 RLU
- Avg RLU ([6]; NADH 12.5 μM): 465875 RLU
- Avg RLU ([6]; NADH 25 μM): 608014 RLU
- Avg RLU ([6]; NADH 50 μM): 687602 RLU
- Avg RLU ([6]; NADH 100 μM): 663944 RLU

SMILES: CC1=C(C)C(=O)C(C(C)(C)CC(=O)N(C)c2ccc(COC(=O)Nc3ccc4nc(C5=N[C@@H](C(=O)O)CS5)sc4c3)cc2)=C(C)C1=O [PBI 4550, Quinone trimethyllock-N-methyl-luciferin carbamate]
- Avg RLU With NADH [2]: 62987 RLU
- Avg RLU Without NADH [2]: 2337 RLU
- S/B [2]: 27
- First Reading With menadione [3]: 1786 RLU
- First Reading Without menadione [3]: 16495 RLU
- Last Reading With menadione [3]: 2393 RLU
- Last Reading Without menadione [3]: 100603 RLU
- Avg RLU With NADH [4]: 25644 RLU
- Avg RLU Without NADH [4]: 2597 RLU
- S/B [4]: 10

SMILES: CC1=C(C)C(=O)C(C(C)(C)CC(=O)N(C)CC(C)(C)CN(C)C(=O)Oc2ccc3nc(C4=N[C@@H](C(=O)O)CS4)sc3c2)=C(C)C1=O [PBI 4565, Quinone trimethyllock-N,N′,2,2-tetramethylpropanediamine carbamate luciferin]
- Avg RLU ([1]; NADH no, diaphorase no): 801 RLU
- Avg RLU [1, 7]: 860 RLU
- Avg RLU [1, 8]: 891 RLU
- Avg RLU [1, 9]: 98349 RLU
- Avg RLU With NADH [2, 10]: 48903 RLU
- Avg RLU Without NADH [2, 11]: 479 RLU
- S/B [2, 12]: 102
- First Reading With menadione [3, 13]: 324 RLU
- First Reading Without menadione [3, 14]: 564 RLU
- Last Reading With menadione [3, 15]: 446 RLU
- Last Reading Without menadione [3, 16]: 4407 RLU
- Avg RLU With NADH [4, 17]: 18559 RLU
- Avg RLU Without NADH [4, 18]: 646 RLU
- S/B [4, 19]: 29
- Avg RLU [5, 20]: 1294 RLU
- Avg RLU ([5]; reaction time 2 min): 41615 RLU
- Avg RLU ([5]; reaction time 5 min): 69945 RLU
- Avg RLU ([5]; reaction time 10 min): 117067 RLU
- Avg RLU ([5]; reaction time 15 min): 154427 RLU
- Avg RLU ([5]; reaction time 25 min): 252212 RLU
- Avg RLU ([5]; reaction time 30 min): 262123 RLU
- Avg RLU ([5]; reaction time 40 min): 278567 RLU
- Avg RLU ([5]; reaction time 50 min): 328037 RLU
- Avg RLU ([5]; reaction time 60 min): 330433 RLU
- Avg RLU ([6]; NADH 0 μM): 967 RLU
- Avg RLU ([6]; NADH 0.006 μM): 1120 RLU
- Avg RLU ([6]; NADH 0.012 μM): 1412 RLU
- Avg RLU ([6]; NADH 0.024 μM): 2300 RLU
- Avg RLU ([6]; NADH 0.049 μM): 3065 RLU
- Avg RLU ([6]; NADH 0.098 μM): 4931 RLU
- Avg RLU ([6]; NADH 0.195 μM): 8863 RLU
- Avg RLU ([6]; NADH 0.39 μM): 16200 RLU
- Avg RLU ([6]; NADH 0.78 μM): 13828 RLU
- Avg RLU ([6]; NADH 1.56 μM): 29258 RLU
- Avg RLU ([6]; NADH 3.125 μM): 63621 RLU
- Avg RLU ([6]; NADH 6.25 μM): 128719 RLU
- Avg RLU ([6]; NADH 12.5 μM): 258360 RLU
- Avg RLU ([6]; NADH 25 μM): 294331 RLU
- Avg RLU ([6]; NADH 50 μM): 287306 RLU
- Avg RLU ([6]; NADH 100 μM): 306242 RLU
